From patent publication US8598157B2, “5-alkynyl-pyridines” (Boehringer Ingelheim International GmbH, priority 2011, dated 2013)

Key:
PI3Kalpha = PI3Kalpha (Homo sapiens (Human), UniProt P42336); test: Inhibition of PI3Kalpha-induced PIP-2 phosphorylation (filter-binding assay); assay type: biochemical; settings: 33P-ATP, p85alpha/His-p110alpha, read-out: IC50 PI3Kα
Description: Inhibition of PI3Kalpha-Induced PIP-2 Phosphorylation
This PI3Kalpha assay provides an IC50 value indicative of the activity of the compounds to inhibit PI3 kinase alpha activity. Inhibition of PI3 kinase would be expected to be indicative of activity in treating conditions of excessive or anomalous cell proliferation, such as cancers. See also J. A. Engelman, Nature Reviews Cancer, 2009, 9, 550-562; A. Carnero, Expert Opin. Investig. Drugs, 2009, 18, 1265-1277 and P. Liu et al., Nature Reviews Drug Discovery, 2009, 8, 627-64.
Method Type: Filter-Binding-Assay
Aliquoted in desired amounts and stored at −80° C. Final assay concentration 25 ng/well • Phosphotyrosin PDGFRbeta-peptide H-CGG-pY-[…]-pY-VPMLDM-NH2 was synthesized by Jerini Peptide Technologies (JPT) and used in a final conc. of 1.7 μM (stock 100 μM prepared in Assay buffer with DTT, aliquoted in desired amounts and stored at −80° C.) • Cold ATP (from Sigma; A-7699), 100 μM stock solution in H2O, use 1 μM final concentration in assay • [33P]-ATP, 370 MBq/ml from Amersham (#AH9968), use 0.5 μCi/well (10 mCi/ml) • Clear 96-well plates from Greiner (#655 162) • Filter plates: Perkin Elmer UniFilter GF/B #6005177 • Microscint 0 (from Perkin Elmer, #6013611) 2. Assay Procedure
The substrate-containing lipid vesicles are dissolved to a concentration of 0.637 mg lipid blend/ml assay buffer (with BSA, freshly added) in 50 ml Falcon->keep on ice, followed by ultrasonication (pulse of 15 sec followed by a pause of 10 sec, 4×). Compounds are serially diluted in assay buffer+6% DMSO and […] of each dilution is added per well of a 96-well plate (compounds are tested in duplicates) and mixed with 30 μl of the lipid vesicles containing PDGFR-Peptide ([…]) and PI3K alpha (25 ng/well final). The mixture is then incubated for 20 minutes at room temperature. Subsequently, 20 μl of assay buffer containing […] cold ATP and 0.5 μCi/20 μl 33P-ATP are added. The plates are then incubated at room temperature for 120 minutes (shaking with 300 rpm).
The reaction mix is transferred onto filter plates using “filtermate harvester” from Packard: filter plates are rinsed with PBS, then the reaction mix is filtered onto the filter plate, washed 5 times with PBS and are allowed to dry for 30-60 minutes at 50° C.
The plate bottom is sealed with Perkin Elmer white adhesive foil and 25 μl/well Microscint( ) are added, the top is covered with transparent adhesive foil and the plate is measured with Wallac Trilux 1450 Microbeta Counter.
As positive control serve wells containing vehicle controls (1% DMSO in assay buffer), showing non-inhibited kinase activity (high values). Wells containing assay buffer instead of enzyme can serve as control for background activity (low values).
Calculate IC50 values using the Smiley program (based on GrapPad Prism)

H460 cells = test: alamarBlue H460 cell assay (antiproliferative/cytotoxicity); assay type: cell-based; settings: NCI-H460; H460 human lung carcinoma cells
Description: (§1) The H460, MB453, U87, MCF7 and BT474 alamarBlue cell assays provide EC50 values indicative of the antiproliferative or cytotoxic effects of the compounds to respectively the H460 (human non small cell line cancer), MB-453 (breast cancer cell line), U87 (glioblastoma cell line), MCF7 (breast cancer cell line) and BT474 (breast cancer cell line). As known in the field, antiproliferative or cytotoxic effect against this cell lines would be expected to be indicative of activity in treating lung, breast and brain cancers. See R. Marone R et al. Biochim. Biophys. Acta. 2008 January; 1784(1):159-85. S. Yaguchi et al., J. Natl. Cancer Inst. 2006 Apr. 19; 98(8):545-56.
(§2) Method Type: Antiproliferative/Cytotoxicity
(§3) alamarBlue® is designed to provide a rapid and sensitive measure of cell proliferation and cytotoxicity in various human and animal cell lines. The assay is based on the reduction of alamarBlue in the reducing environment of living (metabolically active) cells. In the presence of added cytotoxic or antiproliferative compounds, the innate metabolic activity ceases.
(§4) AlamarBlue is soluble and stable in culture medium. Measurements are made fluorometrically by exciting at 530-560 nm and measuring emission at 590 nm. In reporting percent alamarBlue reduction by monitoring fluorescence, data are expressed as fluorescence emission intensity units as a function of time of incubation.
(§5) 3. Equipment • 96-well plates, flat bottom (Falcon, Cat. No.: 353072) • 96-well plates, U-shaped (Costar, Cat. No.: 3799) • CO2-Incubator • Microplate Reader, Spectramax Plus, Molecular Devices 4. Typical Procedure • Day 0: Seed 3000 BT-474 cells (IMDM/5% FCS, 1% NEAA, 1% Sodiumpyruvat) in 150 μl medium into a 96-well plate, flat bottom (include mediumblank). Incubate plates at 37° C. in a CO2 incubator overnight. • Day 1: Dilute compounds to a concentration 40 μM->1:3 in medium, 10 dilution steps, in 96-well plates. • Add 50 μl per well of each dilution (total volume per well 200 μl; final conc. of cpds: 10 μM->1:3). If required, test further dilutions. • All concentrations are tested in duplicates. • Controls: Cells w/o cpd. (+50 μl medium/DMSO). • Cells are incubated with compounds for 5-6 days. • Day 6 or 7: Add 25 μl of alamarBlue solution to each well and incubate for 8 hours at 37° C. Measure fluorescence by exciting at 530-560 nm and measuring emission at 590 nm. 5. Evaluation • Subtract average value for medium blank from sample readings • Calculate EC50 using GraphPad Prism (Fifty)

MB453 cells = test: alamarBlue MB453 cell assay (antiproliferative/cytotoxicity); assay type: cell-based; settings: Homo sapiens; MDA MB 453 breast cancer cell line
Description: as §1, §2, §3, §4, §5

U87 cells = test: U87 cell assay (antiproliferative/cytotoxicity); assay type: cell-based; settings: U-87MG human glioblastoma cells
Description: as §1, §2, §3, §4, §5

BT474 cells = test: alamarBlue BT474 cell assay (antiproliferative/cytotoxicity); assay type: cell-based; settings: BT-474 human breast cancer cell line
Description: as §1, §2, §3, §4, §5

Sequence of PI3Kalpha (P42336 whole entry): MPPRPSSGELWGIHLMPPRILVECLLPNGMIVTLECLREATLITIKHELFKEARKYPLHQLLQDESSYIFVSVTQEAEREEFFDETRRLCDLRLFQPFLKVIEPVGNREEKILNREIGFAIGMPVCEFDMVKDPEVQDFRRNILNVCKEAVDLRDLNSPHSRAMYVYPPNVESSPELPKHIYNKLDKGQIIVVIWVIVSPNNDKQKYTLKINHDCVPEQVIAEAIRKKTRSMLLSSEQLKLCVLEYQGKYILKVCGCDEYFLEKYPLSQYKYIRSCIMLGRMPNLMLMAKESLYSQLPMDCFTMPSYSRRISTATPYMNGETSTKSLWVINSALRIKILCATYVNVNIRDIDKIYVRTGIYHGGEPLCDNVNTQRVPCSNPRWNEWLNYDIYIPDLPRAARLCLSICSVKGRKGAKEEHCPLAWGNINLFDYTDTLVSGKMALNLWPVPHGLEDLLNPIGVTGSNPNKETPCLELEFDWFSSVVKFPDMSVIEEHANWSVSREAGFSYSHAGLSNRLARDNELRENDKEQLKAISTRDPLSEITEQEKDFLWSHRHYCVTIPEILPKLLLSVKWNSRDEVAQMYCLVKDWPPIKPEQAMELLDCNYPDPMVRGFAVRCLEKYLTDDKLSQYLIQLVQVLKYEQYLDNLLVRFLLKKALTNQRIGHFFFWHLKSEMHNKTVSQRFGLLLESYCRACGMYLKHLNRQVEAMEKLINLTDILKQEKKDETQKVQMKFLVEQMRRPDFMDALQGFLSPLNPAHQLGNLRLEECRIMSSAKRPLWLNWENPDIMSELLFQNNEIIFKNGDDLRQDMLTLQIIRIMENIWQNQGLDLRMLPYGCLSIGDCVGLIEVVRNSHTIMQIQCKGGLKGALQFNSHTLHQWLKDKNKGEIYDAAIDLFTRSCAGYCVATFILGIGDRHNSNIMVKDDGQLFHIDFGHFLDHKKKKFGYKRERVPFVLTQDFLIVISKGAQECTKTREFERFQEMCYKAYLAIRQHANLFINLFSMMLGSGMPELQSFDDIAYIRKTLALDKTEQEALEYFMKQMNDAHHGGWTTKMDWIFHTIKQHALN

Compound	IC50 (PI3Kalpha) [nM]	EC50 (H460 cells) [nM]	EC50 (MB453 cells) [nM]	EC50 (U87 cells) [nM]	EC50 (BT474 cells) [nM]
CCc1ncnc(NC)c1C#Cc1cnc(C)c(NS(C)(=O)=O)c1 [Example I-33, N-[5-(4-Ethyl-6-methylamino-pyrimidin-5-ylethynyl)-2-methyl-pyridin-3-yl]-methanesulfonamide]	49	–	–	–	–
CCc1nc(N)nc(N2CCC(O)CC2)c1C#Cc1cnc(C)c(NS(C)(=O)=O)c1 [Example I-35, N-{5-[2-Amino-4-ethyl-6-(4-hydroxy-piperidin-1-yl)-pyrimidin-5-ylethynyl]-2-methyl-pyridin-3-yl}-methanesulfonamide]	5	25000	–	–	–
CCc1nc(N)nc(N2CCCCC2)c1C#Cc1cnc(C)c(NS(C)(=O)=O)c1 [Example I-36, N-[5-(2-Amino-4-ethyl-6-piperidin-1-yl-pyrimidin-5-ylethynyl)-2-methyl-pyridin-3-yl]-methanesulfonamide]	5	–	–	–	–
CCc1ncnc(N2CCC(C)(O)CC2)c1C#Cc1cnc(C)c(NS(C)(=O)=O)c1 [Example I-42, N-{5-[4-Ethyl-6-(4-hydroxy-4-methyl-piperidin-1-yl)-pyrimidin-5-ylethynyl]-2-methyl-pyridin-3-yl}-methanesulfonamide]	0.55	295	–	–	–
CCc1nc(N)nc(N2CCC(C)(O)CC2)c1C#Cc1cnc(C)c(NS(C)(=O)=O)c1 [Example I-43, N-{5-[2-Amino-4-ethyl-6-(4-hydroxy-4-methyl-piperidin-1-yl)-pyrimidin-5-ylethynyl]-2-methyl-pyridin-3-yl}-methanesulfonamide]	3	3670	–	–	–
CCc1ncnc(N2CCCCC2)c1C#Cc1cnc(C)c(NS(C)(=O)=O)c1 [Example I-44, N-[5-(4-Ethyl-6-piperidin-1-yl-pyrimidin-5-ylethynyl)-2-methyl-pyridin-3-yl]-methanesulfonamide]	2	117	–	–	–
Cc1ncc(C#Cc2c(C)ncnc2NC(C)C)cc1NS(=O)(=O)c1ccccc1 [Example I-59, N-[5-(4-Isopropylamino-6-methyl-pyrimidin-5-ylethynyl)-2-methyl-pyridin-3-yl]-benzenesulfonamide]	6	723	1930	1000	5000
Cc1ncc(C#Cc2c(C)ncnc2N2CCOC[C@H]2C)cc1NS(=O)(=O)c1ccccc1 [Example I-69, N-{2-Methyl-5-[4-methyl-6-((R)-3-methyl-morpholin-4-yl)-pyrimidin-5-ylethynyl]-pyridin-3-yl}-benzenesuIfonamide]	2	–	–	–	749
Cc1ncc(C#Cc2c(C)ncnc2N2CCOC[C@@H]2C)cc1NS(=O)(=O)c1ccccc1 [Example I-70, N-{2-Methyl-5-[4-methyl-6-((S)-3-methyl-morpholin-4-yl)-pyrimidin-5-ylethynyl]-pyridin-3-yl}-benzenesulfonamide]	0.2	–	–	–	615
COCCN(C)c1ncnc(C)c1C#Cc1cnc(C)c(NS(=O)(=O)c2ccccc2)c1 [Example I-71, N-(5-{4-[(2-Methoxy-ethyl)-methyl-amino]-6-methyl-pyrimidin-5-ylethynyl}-2-methyl-pyridin-3-yl)-benzenesulfonamide]	5	1620	2100	1190	1500
Cc1ncc(C#Cc2c(C)ncnc2N(C)CC2CCOC2)cc1NS(=O)(=O)c1ccccc1 (stereo not drawn) [Example I-72, N-(2-Methyl-5-{4-methyl-6-[methyl-(tetrahydro-furan-3-ylmethyl)-amino]-pyrimidin-5-ylethynyl}-pyridin-3-yl)-benzenesulfonamide]	8	–	–	–	5160
Cc1ncc(C#Cc2c(C)ncnc2N2CCCOCC2)cc1NS(=O)(=O)c1ccccc1 [Example I-73, N-[2-Methyl-5-(4-methyl-6-[1,4]oxazepan-4-yl-pyrimidin-5-ylethynyl)-pyridin-3-yl]-benzenesulfonamide]	2	–	–	–	1940
COC1CCN(c2ncnc(C)c2C#Cc2cnc(C)c(NS(=O)(=O)c3ccccc3)c2)CC1 [Example I-74, N-{5-[4-(4-Methoxy-piperidin-1-yl)-6-methyl-pyrimidin-5-ylethynyl]-2-methyl-pyridin-3-yl}-benzenesulfonamide]	2	703	987	557	400
CCc1ncnc(N2CCOCC2)c1C#Cc1cnc(OC)c(NS(C)(=O)=O)c1 [Example I-75, N-[5-(4-Ethyl-6-morpholin-4-yl-pyrimidin-5-ylethynyl)-2-methoxy-pyridin-3-yl]-methanesulfonamide]	1	–	–	–	247
CCc1ncnc(N2CCOCC2)c1C#Cc1cnc(OC)c(NS(=O)(=O)CC)c1 [Example I-76, Ethanesulfonic acid [5-(4-ethyl-6-morpholin-4-yl-pyrimidin-5-ylethynyl)-2-methoxy-pyridin-3-yl]-amide]	2	–	–	–	342
CCc1ncnc(N2CCOCC2)c1C#Cc1cnc(OC)c(NS(=O)(=O)C2CC2)c1 [Example I-77, Cyclopropanesulfonic acid [5-(4-ethyl-6-morpholin-4-yl-pyrimidin-5-ylethynyl)-2-methoxy-pyridin-3-yl]-amide]	1	–	–	–	263
CCc1ncnc(N2CCOCC2)c1C#Cc1cnc(OC)c(NS(=O)(=O)CCOC)c1 [Example I-78, 2-Methoxy-ethanesulfonic acid [5-(4-ethyl-6-morpholin-4-yl-pyrimidin-5-ylethynyl)-2-methoxy-pyridin-3-yl]-amide]	2	–	–	–	469
CCc1ncnc(N2CCOCC2)c1C#Cc1cnc(OC)c(NS(=O)(=O)c2cccs2)c1 [Example I-79, Thiophene-2-sulfonic acid [5-(4-ethyl-6-morpholin-4-yl-pyrimidin-5-ylethynyl)-2-methoxy-pyridin-3-yl]-amide]	0.75	–	–	–	20
CCc1ncnc(N2CCOCC2)c1C#Cc1cnc(OC)c(NS(=O)(=O)c2ccco2)c1 [Example I-80, Furan-2-sulfonic acid [5-(4-ethyl-6-morpholin-4-yl-pyrimidin-5-ylethynyl)-2-methoxy-pyridin-3-yl]-amide]	0.55	–	–	–	40
